Assay in all cases: Kinase panel profiling at 1 µmol/L (mobility shift assay, Carna)
Assay type in all cases: biochemical
What all share (conditions): 1 µmol/L of BTK inhibitor

In one test the target is T1, CaMK1δ (Homo sapiens, UniProt Q8IU85).
T1 construct: purchased Carna Biosciences

Another test concerns the target T2, ROCK1 (Homo sapiens, UniProt Q13464).
T2 construct: purchased Carna Biosciences

For the next test, the target named is T3, PAK2 (Homo sapiens, UniProt Q13177).
T3 construct: purchased Carna Biosciences
T3 sequence (Q13177 whole entry): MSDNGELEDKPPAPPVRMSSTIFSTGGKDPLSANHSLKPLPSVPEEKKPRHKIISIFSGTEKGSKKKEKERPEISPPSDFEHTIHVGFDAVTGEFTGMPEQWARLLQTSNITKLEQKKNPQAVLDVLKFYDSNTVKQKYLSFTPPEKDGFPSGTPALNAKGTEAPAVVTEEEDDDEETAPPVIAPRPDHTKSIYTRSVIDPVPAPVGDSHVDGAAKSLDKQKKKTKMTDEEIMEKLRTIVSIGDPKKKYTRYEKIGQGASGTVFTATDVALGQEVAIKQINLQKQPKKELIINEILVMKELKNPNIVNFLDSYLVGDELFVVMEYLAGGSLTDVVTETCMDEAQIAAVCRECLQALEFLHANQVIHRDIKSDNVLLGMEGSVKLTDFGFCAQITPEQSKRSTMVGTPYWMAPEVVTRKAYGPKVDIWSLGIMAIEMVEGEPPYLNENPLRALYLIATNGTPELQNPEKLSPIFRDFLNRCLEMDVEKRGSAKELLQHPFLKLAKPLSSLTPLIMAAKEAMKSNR

The target of another test is T4, LATS2 (Homo sapiens, UniProt Q9NRM7).
T4 construct: purchased Carna Biosciences
T4 sequence (Q9NRM7 1-1088): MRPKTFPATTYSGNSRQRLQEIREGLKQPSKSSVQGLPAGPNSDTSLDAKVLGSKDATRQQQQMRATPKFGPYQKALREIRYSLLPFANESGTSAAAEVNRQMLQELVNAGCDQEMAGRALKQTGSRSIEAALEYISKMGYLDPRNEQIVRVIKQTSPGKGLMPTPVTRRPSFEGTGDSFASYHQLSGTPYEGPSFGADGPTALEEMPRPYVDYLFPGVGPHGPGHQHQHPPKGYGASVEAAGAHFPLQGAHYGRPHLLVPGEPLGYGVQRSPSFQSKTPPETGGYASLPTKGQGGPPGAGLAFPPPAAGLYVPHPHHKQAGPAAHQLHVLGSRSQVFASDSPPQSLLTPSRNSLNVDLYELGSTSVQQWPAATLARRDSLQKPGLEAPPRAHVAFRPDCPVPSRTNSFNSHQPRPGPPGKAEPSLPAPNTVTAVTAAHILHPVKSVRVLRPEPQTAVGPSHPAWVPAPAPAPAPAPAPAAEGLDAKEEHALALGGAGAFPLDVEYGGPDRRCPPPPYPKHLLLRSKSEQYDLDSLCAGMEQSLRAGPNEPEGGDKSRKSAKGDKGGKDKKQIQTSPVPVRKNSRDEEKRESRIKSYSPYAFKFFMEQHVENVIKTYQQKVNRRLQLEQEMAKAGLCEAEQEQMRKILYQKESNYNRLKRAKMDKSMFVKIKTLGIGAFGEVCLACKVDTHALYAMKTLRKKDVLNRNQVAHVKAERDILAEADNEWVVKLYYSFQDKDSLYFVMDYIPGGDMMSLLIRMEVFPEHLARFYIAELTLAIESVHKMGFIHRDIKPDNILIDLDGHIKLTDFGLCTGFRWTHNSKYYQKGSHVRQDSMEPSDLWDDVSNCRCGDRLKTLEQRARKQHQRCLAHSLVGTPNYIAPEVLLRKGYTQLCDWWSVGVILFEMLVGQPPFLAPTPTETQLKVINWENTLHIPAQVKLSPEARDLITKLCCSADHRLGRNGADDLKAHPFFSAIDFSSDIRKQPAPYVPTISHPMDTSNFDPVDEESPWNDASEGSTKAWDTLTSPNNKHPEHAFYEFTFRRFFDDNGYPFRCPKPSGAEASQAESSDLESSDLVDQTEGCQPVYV

In a further test the target is T5, PEK (Homo sapiens, UniProt Q9NZJ5).
T5 construct: purchased Carna Biosciences
T5 sequence (Q9NZJ5 30-1116): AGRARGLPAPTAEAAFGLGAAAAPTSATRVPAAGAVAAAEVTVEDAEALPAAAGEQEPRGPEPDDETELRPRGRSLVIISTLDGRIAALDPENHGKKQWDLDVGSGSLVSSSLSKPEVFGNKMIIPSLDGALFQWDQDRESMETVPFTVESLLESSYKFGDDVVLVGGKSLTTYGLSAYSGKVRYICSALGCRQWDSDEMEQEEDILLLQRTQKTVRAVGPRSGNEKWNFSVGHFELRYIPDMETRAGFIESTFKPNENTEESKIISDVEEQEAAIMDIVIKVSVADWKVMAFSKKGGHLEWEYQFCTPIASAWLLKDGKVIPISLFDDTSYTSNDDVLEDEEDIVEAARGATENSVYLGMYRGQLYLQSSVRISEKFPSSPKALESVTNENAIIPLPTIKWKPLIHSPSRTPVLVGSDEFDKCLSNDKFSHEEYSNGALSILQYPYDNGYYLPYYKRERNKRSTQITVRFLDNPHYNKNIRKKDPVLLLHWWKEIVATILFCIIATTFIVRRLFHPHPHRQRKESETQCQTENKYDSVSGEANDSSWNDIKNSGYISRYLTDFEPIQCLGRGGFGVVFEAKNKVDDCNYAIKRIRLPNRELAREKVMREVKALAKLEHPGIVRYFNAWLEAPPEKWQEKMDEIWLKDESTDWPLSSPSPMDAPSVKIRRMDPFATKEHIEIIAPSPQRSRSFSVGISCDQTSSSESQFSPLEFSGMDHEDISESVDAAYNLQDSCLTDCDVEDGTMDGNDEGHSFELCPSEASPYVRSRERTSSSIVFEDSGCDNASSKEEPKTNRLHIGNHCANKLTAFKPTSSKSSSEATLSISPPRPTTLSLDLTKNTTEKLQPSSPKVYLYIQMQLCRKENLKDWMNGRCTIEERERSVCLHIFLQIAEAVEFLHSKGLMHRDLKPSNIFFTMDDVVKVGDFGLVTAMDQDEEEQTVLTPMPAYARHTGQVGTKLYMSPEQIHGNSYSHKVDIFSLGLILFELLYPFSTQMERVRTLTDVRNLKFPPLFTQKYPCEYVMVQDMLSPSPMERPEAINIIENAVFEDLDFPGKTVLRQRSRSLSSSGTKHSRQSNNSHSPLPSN

For the next test, the target named is T6, MSSK1 (Homo sapiens, UniProt Q9UPE1).
T6 construct: purchased Carna Biosciences
T6 sequence (Q9UPE1 whole entry): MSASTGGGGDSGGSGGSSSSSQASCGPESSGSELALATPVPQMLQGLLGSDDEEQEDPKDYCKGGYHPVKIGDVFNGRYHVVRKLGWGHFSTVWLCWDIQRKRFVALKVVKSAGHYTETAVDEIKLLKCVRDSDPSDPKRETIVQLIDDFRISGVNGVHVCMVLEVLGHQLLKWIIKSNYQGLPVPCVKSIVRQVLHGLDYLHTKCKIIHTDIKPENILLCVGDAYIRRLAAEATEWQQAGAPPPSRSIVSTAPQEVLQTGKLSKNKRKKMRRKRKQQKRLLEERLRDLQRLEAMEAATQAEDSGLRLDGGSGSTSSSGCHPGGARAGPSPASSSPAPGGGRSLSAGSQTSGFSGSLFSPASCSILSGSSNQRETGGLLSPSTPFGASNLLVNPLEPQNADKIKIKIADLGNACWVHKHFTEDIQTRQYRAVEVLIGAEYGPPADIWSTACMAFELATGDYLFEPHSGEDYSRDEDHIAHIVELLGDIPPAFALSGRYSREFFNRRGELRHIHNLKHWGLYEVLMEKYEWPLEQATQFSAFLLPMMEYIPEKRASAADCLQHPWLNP

Another test deals with T7, IGF1R (Homo sapiens, UniProt P08069).
T7 construct: purchased Carna Biosciences
T7 sequence (P08069 31-1367): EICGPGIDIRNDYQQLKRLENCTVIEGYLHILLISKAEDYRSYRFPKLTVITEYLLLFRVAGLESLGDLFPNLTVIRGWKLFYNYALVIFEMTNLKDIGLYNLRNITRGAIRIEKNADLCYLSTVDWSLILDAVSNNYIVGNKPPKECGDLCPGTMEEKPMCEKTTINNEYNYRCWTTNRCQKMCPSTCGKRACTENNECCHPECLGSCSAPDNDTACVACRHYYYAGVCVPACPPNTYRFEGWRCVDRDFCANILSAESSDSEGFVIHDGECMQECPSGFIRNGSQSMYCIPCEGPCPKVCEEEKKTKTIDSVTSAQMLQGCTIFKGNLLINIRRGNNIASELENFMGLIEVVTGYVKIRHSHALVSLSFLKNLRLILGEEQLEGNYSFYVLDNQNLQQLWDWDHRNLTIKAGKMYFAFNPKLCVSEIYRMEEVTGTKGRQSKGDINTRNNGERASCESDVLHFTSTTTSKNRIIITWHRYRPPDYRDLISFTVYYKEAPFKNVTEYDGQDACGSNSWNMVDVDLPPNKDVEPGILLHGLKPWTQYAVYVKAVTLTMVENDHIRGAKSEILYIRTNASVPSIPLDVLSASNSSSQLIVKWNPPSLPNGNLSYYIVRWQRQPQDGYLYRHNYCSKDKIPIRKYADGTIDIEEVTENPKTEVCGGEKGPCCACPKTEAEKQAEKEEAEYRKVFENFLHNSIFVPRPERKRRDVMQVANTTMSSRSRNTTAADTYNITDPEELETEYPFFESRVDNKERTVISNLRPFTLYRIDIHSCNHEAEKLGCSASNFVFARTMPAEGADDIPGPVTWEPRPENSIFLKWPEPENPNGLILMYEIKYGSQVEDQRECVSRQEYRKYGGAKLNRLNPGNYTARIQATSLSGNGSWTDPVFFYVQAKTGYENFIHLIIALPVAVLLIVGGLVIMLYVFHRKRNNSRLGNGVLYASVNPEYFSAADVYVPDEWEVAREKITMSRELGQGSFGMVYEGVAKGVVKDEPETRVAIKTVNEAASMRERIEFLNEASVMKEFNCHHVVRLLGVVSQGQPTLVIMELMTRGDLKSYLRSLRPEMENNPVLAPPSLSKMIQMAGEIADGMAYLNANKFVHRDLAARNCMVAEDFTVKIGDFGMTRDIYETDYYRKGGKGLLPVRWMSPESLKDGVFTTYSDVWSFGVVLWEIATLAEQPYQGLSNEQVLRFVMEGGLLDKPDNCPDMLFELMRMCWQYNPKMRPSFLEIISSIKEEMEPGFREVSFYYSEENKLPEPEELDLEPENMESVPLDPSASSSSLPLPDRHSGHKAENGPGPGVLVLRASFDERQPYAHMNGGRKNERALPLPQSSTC

Structures are written as SMILES.

T2 sequence (Q13464 whole entry): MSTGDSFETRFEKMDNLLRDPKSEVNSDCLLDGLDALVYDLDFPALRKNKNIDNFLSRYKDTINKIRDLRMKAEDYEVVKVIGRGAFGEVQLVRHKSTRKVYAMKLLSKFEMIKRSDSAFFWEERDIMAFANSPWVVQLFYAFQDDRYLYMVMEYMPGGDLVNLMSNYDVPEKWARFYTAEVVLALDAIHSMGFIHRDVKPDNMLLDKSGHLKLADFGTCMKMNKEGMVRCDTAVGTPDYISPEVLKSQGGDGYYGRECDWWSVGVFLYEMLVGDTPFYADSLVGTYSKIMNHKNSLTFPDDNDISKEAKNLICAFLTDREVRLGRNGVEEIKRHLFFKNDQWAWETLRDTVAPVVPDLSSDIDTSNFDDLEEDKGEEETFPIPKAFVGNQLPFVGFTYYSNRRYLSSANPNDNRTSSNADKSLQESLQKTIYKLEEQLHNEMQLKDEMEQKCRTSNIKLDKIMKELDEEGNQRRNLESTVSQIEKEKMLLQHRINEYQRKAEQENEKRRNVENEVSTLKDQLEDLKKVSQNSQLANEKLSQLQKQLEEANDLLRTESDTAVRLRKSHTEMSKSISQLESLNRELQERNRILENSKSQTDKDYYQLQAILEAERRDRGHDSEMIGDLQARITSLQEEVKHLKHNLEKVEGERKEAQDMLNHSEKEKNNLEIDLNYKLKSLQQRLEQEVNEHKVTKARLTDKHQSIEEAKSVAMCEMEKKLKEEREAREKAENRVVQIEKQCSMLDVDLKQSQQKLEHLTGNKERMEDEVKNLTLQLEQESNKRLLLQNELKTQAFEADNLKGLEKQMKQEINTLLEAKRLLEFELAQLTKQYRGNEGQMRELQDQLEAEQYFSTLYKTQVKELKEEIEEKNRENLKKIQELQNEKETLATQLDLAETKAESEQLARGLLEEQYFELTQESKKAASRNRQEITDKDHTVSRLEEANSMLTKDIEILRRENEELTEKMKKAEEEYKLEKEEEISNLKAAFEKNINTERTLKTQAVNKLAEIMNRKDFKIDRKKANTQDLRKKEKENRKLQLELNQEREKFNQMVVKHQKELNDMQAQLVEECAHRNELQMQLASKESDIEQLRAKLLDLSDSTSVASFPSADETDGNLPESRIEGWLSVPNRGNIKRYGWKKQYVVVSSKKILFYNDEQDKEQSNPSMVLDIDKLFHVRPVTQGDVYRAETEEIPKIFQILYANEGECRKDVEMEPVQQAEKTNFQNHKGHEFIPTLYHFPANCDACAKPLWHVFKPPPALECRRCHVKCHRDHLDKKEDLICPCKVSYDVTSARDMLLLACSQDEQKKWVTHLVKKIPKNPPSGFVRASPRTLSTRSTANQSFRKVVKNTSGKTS
T1 sequence (Q8IU85 whole entry): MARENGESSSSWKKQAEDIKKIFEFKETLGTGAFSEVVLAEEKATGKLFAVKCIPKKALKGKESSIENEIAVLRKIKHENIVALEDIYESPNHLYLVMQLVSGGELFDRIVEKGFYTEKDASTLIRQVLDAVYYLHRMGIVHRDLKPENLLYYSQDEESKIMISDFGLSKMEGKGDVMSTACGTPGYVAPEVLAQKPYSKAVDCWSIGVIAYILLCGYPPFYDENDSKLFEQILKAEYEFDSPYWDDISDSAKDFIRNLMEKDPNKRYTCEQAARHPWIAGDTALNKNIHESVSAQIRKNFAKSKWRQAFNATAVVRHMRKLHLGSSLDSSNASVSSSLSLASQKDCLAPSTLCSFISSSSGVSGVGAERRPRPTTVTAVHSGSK

As for `CC#CC(=O)N1CCC[C@H]1c1nc(-c2ccc(C(=O)Nc3ccccn3)cc2)c2c(N)nccn12` [acalabrutinib], the “Percentage inhibition of kinase enzyme activity” value (shortened to “Percentage inhibition”) on CaMK1δ is recorded as -5.01%; on ROCK1, -7.78%; at PAK2, -5.20%; on LATS2 it was -7.45%; on PEK it was 8.39%; at MSSK1, -4.86%. The “Percentage inhibition” value on IGF1R is recorded as 0.47%.

As to `C=CC(=O)N1CCC[C@@H](n2nc(-c3ccc(Oc4ccccc4)cc3)c3c(N)ncnc32)C1` [ibrutinib], the “Percentage inhibition” value on CaMK1δ was 4.85%; at ROCK1, -5.42%; on PAK2 it was -5.81%; on LATS2, 5.45%; at PEK, 7.47%; at MSSK1, 1.54%. For the same compound, the “Percentage inhibition” value at IGF1R is 7.45%.

On to `O=C(c1ccc(Oc2ccccc2)cc1Cl)c1c[nH]c2ncnc(N[C@@H]3CC[C@@H](CO)OC3)c12` [nemtabrutinib], for which the “Percentage inhibition” value on CaMK1δ is recorded as 9.32%; at ROCK1 it was 16.05%; on PAK2, 93.68%; at LATS2, 70.96%; on PEK, 49.66%; on MSSK1 it was -0.95%. Moreover, the “Percentage inhibition” value on IGF1R was found to be 99.20%.

Take `COc1ccc(F)cc1C(=O)NCc1ccc(-c2nn([C@@H](C)C(F)(F)F)c(N)c2C(N)=O)cc1` [pirtobrutinib]: the “Percentage inhibition” value is recorded as 2.74% on CaMK1δ; -4.30% on ROCK1; 8.29% on PAK2; 2.57% at LATS2; -9.35% on PEK; -8.63% on MSSK1. In addition, on IGF1R, the “Percentage inhibition” value is 0.28%.

Take `C=CC(=O)N1CCC([C@@H]2CCNc3c(C(N)=O)c(-c4ccc(Oc5ccccc5)cc4)nn32)CC1` [zanubrutinib]: the “Percentage inhibition” value came to 9.82% at PAK2 and 4.03% on IGF1R.

The values above are taken from PMC12586182 (Frontiers in Oncology, 2025).
